Measured values as given in US9975860B2, “Anti-angiogenic compounds” (UNIVERSITY COLLEGE DUBLIN—NATIONAL UNIVERSITY OF IRELAND, …, priority 2014, dated 2018).
“Also recorded” adds a separate entry of the source.

Columns and labels:
[1] = tested on: mouse aortic ring; test: Ex vivo mouse aortic ring assay (sprout formation); conditions: 10 μM; C57/BL6 mouse aortic rings in matrigel; vs 0.1% DMSO; hydrochloride
Procedure: Aortae from sex matched C57/BL6 littermates were cleansed of adipose tissue, cut into 2 mm rings and immersed in matrigel. Aortic rings (6 per experiment) were treated with 0.1% DMSO (vehicle control/VC) or with 10 μM of Compound 4, Compound 12, Compound 15 or Compound 20. Sprouts from the perimeter of the aortic ring were counted and quantified as percentage of vehicle control (VC).

[2] = tested on: OE33P radiosensitive oesophageal adenocarcinoma cells; test: Seahorse ECAR (glycolysis) in OE33P; type: cell-based, human; conditions: 10 μM, 24 hours
Procedure: (§1) OE33P radiosensitive oesophageal adenocarcinoma cells and OE33R radioresistant oesophageal adenocarcinoma cells were used to test the effects of the compound 4 on glycolysis. Cells were maintained in RPMI media supplemented with 10% foetal calf serum, penicillin (100 U/ml) and streptomycin (100 μg/ml). A total of 11,000 cells (OE33P) or 13,000 cells (OE33R), in 100 μl media, were seeded per well in 24 well plates and left to incubate for 24 hours, with an additional 150 μl media added after 5 hours. The media was replaced with solutions containing 10 μM of compound 4 or the equivalent volume of DMSO vehicle control. After 24 hours of treatment, media was replaced with modified DMEM supplemented with 0.5 mM glucose. Rates of glycolysis were determined using Seahorse Biosciences metabolism technology. The media was disposed and the cells washed with PBS. The cells were fixed with 1% glutaraldehyde for 15 minutes and then stained with crystal violet for 30 minutes. The plates were blotted and dried overnight. The cells were resuspended with 1% TritonX-100 and shaken for 15 minutes. The absorbance was read on a spectrophotometer at 595 nm Rates of glycolysis were then normalised to cell number.

[3] = tested on: OE33R radioresistant oesophageal adenocarcinoma cells; test: Seahorse ECAR (glycolysis) in OE33R; type: cell-based, human; conditions: 10 μM, 24 hours
Procedure: as §1

[4] = tested on: HT29-LUC radioresistant colorectal adenocarcinoma cells; test: Seahorse ECAR (glycolysis) in HT29-LUC; type: cell-based, human; conditions: 10 μM, 24 hours
Procedure: as §1, with “HT29-LUC” for “OE33P radiosensitive oesophageal adenocarcinoma cells and OE33R”, “colorectal” for “oesophageal”, “of” for “of the”, “McCoy's 5A” for “RPMI”, “serum.” for “serum, penicillin (100 U/ml) and streptomycin (100 μg/ml).”, “20,000 cells,” for “11,000 cells (OE33P) or 13,000 cells (OE33R),”

[5] = tested on: OE33P radiosensitive oesophageal adenocarcinoma cells; test: Seahorse OCR (oxidative phosphorylation) in OE33P; type: cell-based, human; conditions: 10 μM, 24 hours
Procedure: as §1, with “radiosensitive” for “radiosensitive oesophageal adenocarcinoma cells”, “oxidative phosphorylation.” for “glycolysis.”, “11,000 OE33P” for “11,000”, “and” for “(OE33P) or”, “OE33R cells,” for “cells (OE33R),”, “oxidative phosphorylation” for “glycolysis”

[6] = tested on: OE33R radioresistant oesophageal adenocarcinoma cells; test: Seahorse OCR (oxidative phosphorylation) in OE33R; type: cell-based, human; conditions: 10 μM, 24 hours, p<0.05
Procedure: as §1, with “radiosensitive” for “radiosensitive oesophageal adenocarcinoma cells”, “oxidative phosphorylation.” for “glycolysis.”, “11,000 OE33P” for “11,000”, “and” for “(OE33P) or”, “OE33R cells,” for “cells (OE33R),”, “oxidative phosphorylation” for “glycolysis”

[7] = tested on: MMS19; test: qPCR DNA repair gene expression in OE33P: MMS19; type: cell-based, human; conditions: 10 μM, 24 hours, p<0.01
Procedure: (§2) OE33P radiosensitive oesophageal adenocarcinoma cells and OE33R radioresistant oesophageal adenocarcinoma cells were used to test the effects of the compound 4 on DNA repair gene expression. Cells were maintained in RPMI media supplemented with 10% foetal calf serum, penicillin (100 U/ml) and streptomycin (100 μg/ml). A total of 300,000 cells, in 2 ml media, were seeded per well in 6 well plates and left to incubate for 24 hours. The media was replaced with solutions containing 10 μM of compound 4 or the equivalent volume of DMSO vehicle control. After 24 hours of treatment, RNA was extracted from the cells and converted to cDNA. qPCR was then conducted and expression of MMS19, SMUG1 PARP1 and MLH1 was quantified, […]

[8] = tested on: MLH1; test: qPCR DNA repair gene expression in OE33P: MLH1; type: cell-based, human; conditions: 10 μM, 24 hours, p<0.05
Procedure: as §2

[9] = tested on: SMUG1; test: qPCR DNA repair gene expression in OE33P: SMUG1; type: cell-based, human; conditions: 10 μM, 24 hours
Procedure: as §2

[10] = tested on: PARP1; test: qPCR DNA repair gene expression in OE33P: PARP1; type: cell-based, human; conditions: 10 μM, 24 hours
Procedure: as §2

[11] = tested on: SMUG1; test: qPCR DNA repair gene expression in OE33R: SMUG1; type: cell-based, human; conditions: 10 μM, 24 hours
Procedure: as §2

[12] = tested on: PARP1; test: qPCR DNA repair gene expression in OE33R: PARP1; type: cell-based, human; conditions: 10 μM, 24 hours
Procedure: as §2

[13] = tested on: MMS19; test: qPCR DNA repair gene expression in OE33R: MMS19; type: cell-based, human; conditions: 10 μM, 24 hours
Procedure: as §2

[14] = tested on: MLH1; test: qPCR DNA repair gene expression in OE33R: MLH1; type: cell-based, human; conditions: 10 μM, 24 hours
Procedure: as §2

[15] = tested on: MLH1; test: qPCR DNA repair gene expression in HT29-LUC: MLH1; type: cell-based, human; conditions: 10 μM, 24 hours, p<0.01
Procedure: HT29-LUC radioresistant colorectal adenocarcinoma cells were used to test the effects of the compound 4 on DNA repair gene expression. Cells were maintained in McCoy's 5A media supplemented with 10% foetal calf serum. A total of 300,000 cells, in 2 ml media, were seeded per well in 6 well plates and left to incubate for 24 hours. The media was replaced with solutions containing 10 μM of compound 4 or the equivalent volume of DMSO vehicle control. After 24 hours of treatment, RNA was extracted from the cells and converted to cDNA. qPCR was then conducted.

Cl.Oc1ccccc1/C=C/c1cnccn1 [Compound 4, (E)-2-[2-(Pyrazin-2-yl)vinyl]phenol hydrochloride]
angiogenesis (sprout formation) in aortic rings [1]: block angiogenesis (sprout formation); also recorded: inhibit the formation of sprouts in a statistically significant manner
extracellular acidification rate (ECAR), a measure of glycolysis [2]: does not significantly reduce extraceullar acidification rate
extracellular acidification rate (ECAR), a measure of glycolysis [3]: does not significantly reduce extraceullar acidification rate
extracellular acidification rate (ECAR), a measure of glycolysis [4]: does not significantly reduce extraceullar acidification rate
oxygen consumption rate (OCR), a measure of oxidative phosphorylation [5]: does not significantly reduce oxygen consumption rate
oxygen consumption rate (OCR), a measure of oxidative phosphorylation [6]: does significantly reduce OCR
expression of MMS19 (qPCR) [7]: significantly reduces the expression of MMS19
expression of MLH1 (qPCR) [8]: significantly reduces
expression of SMUG1 (qPCR) [9]: not significantly different to control
expression of PARP1 (qPCR) [10]: not significantly different to control
expression of SMUG1 (qPCR) [11]: not significantly different to control
expression of PARP1 (qPCR) [12]: not significantly different to control
expression of MMS19 (qPCR) [13]: not significantly different to control
expression of MLH1 (qPCR) [14]: not significantly different to control
expression of MLH1 (qPCR) [15]: significantly reduces the expression of MLH1
